Here are results for six compounds from patent US5801254A, “Arteminolide derivatives and process for the manufacture thereof” (Korea Institute of Science and Technology, priority 1996, dated 1998).

Data set [1] deals with angiogenesis, chorioallantoic membrane (CAM). Briefly: Angiogenesis suppressing activity, chorioallantoic membrane (CAM) assay. The data set is classed as in vivo. The conditions noted are these: fertilized chicken egg, read-out: IC50 values for Angiogenesis Suppression. Here is the method: Angiogenesis was determined in accordance with the chorioallantoic membrane(CAM) assay method of Kusaka et al. described in Biochem. Biophy. Res. Comm., 174, 1070(1991) by using a fertilized chicken egg.
A fertilized chicken egg(Pulmuwon co., Korea) was incubated at 37°-38° C. and a humidity of more than 90%. Here, 0 day-embryo means that the fertilized egg had been storaged at 18° C. for no more than 3-4 days since laying.
The pointed end of the fertilized egg was scratched with a knife, laid horizontally, the scratched site was punctured with a 5 ml syringe and 2 ml of albumin was extracted from the fertilized egg. The puncture hole was then sealed with a glass-tape. The fertilized egg, laid such that the sealed hole is located at the bottom, was incubated under the same condition described above.
The other end of the fertilized egg where the air sac is located, i.e., the end opposite to the hole site was opened, a window having a diameter of 2-3 cm was installed therein, the window was sealed with a glass-tape, and the incubation was resumed.
At this time, a chorioalletoic membrane(CAM) of 2-5 mm diameter develop. A arteminolide sample was dissolved in distilled water or ethanol, 10 μl of the sample solution was dropped on quartered Thermanox coverslip(Nunc, Co.,) and dried in a clean bench. The sealing glass-tape was removed, the treated Thermanox coverslip obtained above was laid on the CAM and then sealed with a glass-tape. All tools used in the above procedure were pre-sterilized with 70% ethanol.
The sealing glass-tape was removed. 1 ml of Intralipose(fat emulsion, Green Cross co., Korea) was taken with syringe, removed an air bobble therefrom and injected into an area below the CAM.
Angiogenesis suppressing activity was then calculated in accordance with the following equation: [formula]

The target in data set [2] is T1, farnesyl-protein transferase (FPTase) (Rattus norvegicus, UniProt Q02293+Q04631).
T1 construct: a cerebrum obtained from white rat; from tissue; host or cells: rat cerebrum (male Sprague-Dawley, 100-150 g), homogenate, partially purified on Q Sepharose Fast Flow
Briefly: Farnesyl-protein transferase inhibiting activity, scintillation proximity assay with 3H-FPP and biotin-lamin B peptide. In kind it is biochemical. The conditions noted are these: read-out: IC50 values for FPTase Inhibition. The procedure: First, a cerebrum obtained from white rat(male Spraguo Dowley 100-150 g) was washed with physiological saline solution and homogenized. The homogenized solution was centrifuged and partially purified by using Q sepharose fast flow column to obtain farnesyl protein transferase(FPTase).
10 μl of a sample, 40 μl of FPTase obtained above, 10 μl of an assay buffer(50 mM Tris-HCl, pH 7.5, 25 mM MgCl2, 2 mM KCl, 5 mM DTT, 5 mM Na2 HPO4, 0.01% Triton X-100), 20 μl of diluted ^3 H-FPP and 20 μl of biotin-lamin B peptide were mixed together and the resulting mixture was reacted at room temperature for 30 minutes. 150 μl of SPA bead/stop reagent solution was added to the mixture and the enzymatic activity was determined by examining the extent of biotin lamin B peptide farneslyation, expressed by a unit of count per minute(CPM), with a liquid scintillation counter.

Data set [3] is described as follows: Solubility. The data set is classed as physicochemical.
The mark [4] stands for this setting: MeOH, acetone, chloroform, DMSO.

Where two headings read alike, the source gives them in different places.

On to `C=C1C(=O)OC2C1CCC(C)(O)C13C=CC(C)(C21)C1(C3)C(=O)OC2C3C(C)=CC(=O)C3=C(C)CC(OC(=O)/C(C)=C\C)C21` (stereo not drawn) [Arteminolide C], for which the 50% inhibitory concentration (IC50) in data set [1] (listed as C) was found to be 0.5 µM; in data set [2] (listed as C), 740 nM. The Solubility result is on record as “soluble” in data set [3] (setting [4]) and “insoluble” in data set [3] (hexane, H2O).

Consider `C=C1C(=O)OC2C1CCC(C)(O)C13C=CC(C)(C21)C1(C3)C(=O)OC2C3C(C)=CC(=O)C3=C(C)CC(OC(=O)/C(C)=C/C)C21` (stereo not drawn) [Arteminolide D], for which the half-inhibitory concentration (IC50) in data set [1] (Gallus gallus) was determined as 6.2 µM; in data set [2], 630 nM. In addition, the Solubility result is given as “soluble” in data set [3] (setting [4]) and “insoluble” in data set [3] (hexane, H2O).

For the compound `C=C1C(=O)OC2C1CCC(C)(O)C13C=CC(C)(C21)C1(C3)C(=O)OC2C3C(C)=CC(=O)C3=C(C)CC(OC(=O)CC(C)C)C21` (stereo not drawn) [Arteminolide F], the values for the IC50 in data set [1] (listed as F) and in data set [2] were 24 µM and 160000 nM, respectively. Moreover, the Solubility result was “soluble” in data set [3] (setting [4]) and “insoluble” in data set [3] (hexane, H2O).

With `C=C1C(=O)OC2C1CCC(C)(O)C13C=CC(C)(C21)C1(C3)C(=O)OC2C3C(C)=CC(=O)C3=C(C)CC(OC(=O)CC(C)C)C21` (stereo not drawn) [Arteminolide A], the IC50 in data set [1] (listed as A) was 5.4 µM; in data set [2] it was 380 nM.

`C=C1C(=O)OC2C1CCC(C)(O)C13C=CC(C)(C21)C1(C3)C(=O)OC2C3C(C)=CC(=O)C3=C(C)CC(OC(=O)/C(C)=C\C)C21` (stereo not drawn) [Arteminolide E]: the IC50 in data set [1] (listed as E) came to 20 µM; in data set [2] (listed as E), 150000 nM. Besides, in data set [3] (hexane, H2O), the Solubility entry is reported as “insoluble”.

As for `C=C1C(=O)OC2C1CCC(C)(O)C13C=CC(C)(C21)C1(C3)C(=O)OC2C3C(C)=CC(=O)C3=C(C)CC(OC(=O)C=C(C)C)C21` (stereo not drawn) [Arteminolide B], the IC50 in data set [1] (Gallus gallus) is 5.2 µM; in data set [2], 400 nM. Also, the Solubility result in data set [3] (setting [4]) is recorded as “soluble”; in data set [3] (hexane, H2O), “insoluble”.
